Where two headings read alike, the source gives them in different places. Numbered stars: 1 amine (or outer) side, 2 acyl side, 3 side chain; on linkers, the order of the positions; unused ones are H or OH. Square brackets hold non-standard residues; d marks the D form. Peptide text beside a SMILES is read from it. * marks the point of attachment. d(β3hW) = N[C@@H](CC(=O)O)Cc1c[nH]c2ccccc12; dPhg = N[C@@H](C(=O)O)c1ccccc1; NMeL = CN[C@@H](CC(C)C)C(=O)O; 3Abz = Nc1cccc(C(=O)O)c1; Cbz = O=C(OCc1ccccc1)*; PhAc = O=C(Cc1ccccc1)*; Boc = CC(C)(C)OC(=O)*; CO = O=C([*:1])[*:2]; Piv = CC(C)(C)C(=O)*; Ahx = NCCCCCC(=O)O; NHtBu = CC(C)(C)N*; Bn = c1ccc(C*)cc1; βAla = NCCC(=O)O; NHiPr = CC(C)N*
Target: T1, endothelin receptor (membrane of smooth muscle tissue of porcine aorta) (Sus scrofa, UniProt Q29010)
T1 construct: from tissue; host or cells: porcine aorta smooth muscle, membrane fraction
T1 sequence (Q29010 21-427): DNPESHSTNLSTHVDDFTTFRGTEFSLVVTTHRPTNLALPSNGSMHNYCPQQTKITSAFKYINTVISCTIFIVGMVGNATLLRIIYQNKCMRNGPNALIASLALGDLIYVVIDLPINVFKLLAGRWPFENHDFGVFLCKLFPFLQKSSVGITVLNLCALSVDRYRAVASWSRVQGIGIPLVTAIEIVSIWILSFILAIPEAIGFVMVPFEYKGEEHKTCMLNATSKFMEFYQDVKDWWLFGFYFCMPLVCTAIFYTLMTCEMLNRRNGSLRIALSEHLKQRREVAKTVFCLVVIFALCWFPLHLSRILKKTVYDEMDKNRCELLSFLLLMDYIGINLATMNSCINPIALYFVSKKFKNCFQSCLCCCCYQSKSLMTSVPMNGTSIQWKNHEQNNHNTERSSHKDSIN
Experiment: Endothelin binding inhibition test (125I-endothelin-1, porcine aorta smooth muscle membrane)
Details: read-out: 125I-endothelin-1 binding inhibition
Protocol: The smooth muscle tissue of porcine aorta was homogenized in a buffer solution of 10 mM MOPS, pH 7.4, at 4° C. by a polytron. To the homogenate, sucrose was added to a concentration of 20%, and the mixture was centrifuged at 1,000×g for 15 minutes, and the supernatant was further centrifuged at 10,000×g for 15 minutes. The supernatant thereof was further centrifuged at 90,000×g for 40 minutes. The membrane precipitate thereby obtained was suspended in a buffer solution of 5 mM HEPES/Tris, pH 7.4, at a concentration of 25 mg/ml.
Then, 16 μl of this membrane suspension was added to 340 μl of 50 mM Tris/HCl buffer, pH 7.4, containing 10 μM calcium chloride, 10 μM magnesium chloride, 0.1 mM PMSF, 1 μM pepstatin A, 2 μM leupeptin, 1 mM 1,10-phenanthroline and 0.1% bovine serum albumin. To this suspension, 4 μl of (A) endothelin-1 (for nonspecific binding; 0.2 μM as the final concentration), (B) buffer solution A (for total control binding), or (C) a test compound (1.1 μM or 10 μM as the final concentration),was added. Further, to each suspension, 40 μl of ^125 I-endothelin-1 (12000-18000 cpm) was added. These mixtures were incubated at 25° C. for 4 hours, then subjected to filtration on a glass filter GF/C and then washed with 5 mM HEPES/Tris, pH 7.4, containing 0.3% bovine serum albumin. Then, the radioactivity trapped by the glass filter was measured, and the ^125 I-endothelin-1 binding inhibition D (%) at 1.1 μM or 10 μM of the test compound was determined by the following equation. [formula] Each test was performed in triplicate.
The test compounds are indicated by Compound Nos.

| Compound | inhibition at 1.1 µM (1.1 μM test compound (no mark)) [%] | other results |
| --- | --- | --- |
| CC(C)C[C@H](NC(=O)OC(C)(C)C)C(=O)N[C@H](Cc1c[nH]c2ccccc12)C(=O)NC(Cc1nccs1)C(=O)O (some centres unmarked) [Compound 16] | 74 | – |
| CC(C)C[C@H](NC(=O)OC(C)(C)C)C(=O)N[C@H](Cc1c[nH]c2ccccc12)C(=O)NN(CC(=O)O)CC(=O)O [Compound 147] | – | inhibition at 10 µM (10 μM test compound (marked *)): 57% |
| CC(C)C[C@H](NC(=O)OC(C)(C)C)C(=O)N[C@H](Cc1c[nH]c2ccccc12)C(=O)N[C@@H](CC(=O)O)Cc1c[nH]c2ccccc12 [Compound 19] (Boc-Leu-[dW]-[d(β3hW)]-OH) | – | inhibition at 10 µM: 53% |
| CC(C)C[C@H](NC(=O)OC(C)(C)C)C(=O)N[C@H](Cc1c[nH]c2ccccc12)C(=O)Nc1cccc(C(=O)O)c1 [Compound 12] (Boc-Leu-[dW]-[3Abz]-OH) | 31 | – |
| CC(C)C[C@H](NC(=O)OC(C)(C)C)C(=O)N[C@H](Cc1c[nH]c2ccccc12)C(=O)N[C@H](Cc1ccccc1)CS(=O)(=O)O [Compound 26] | – | inhibition at 10 µM (10 μM test compound (marked *)): 36% |
| CC(C)C[C@H](NC(=O)NN1CCCC1)C(=O)N[C@H](Cc1c[nH]c2ccccc12)C(=O)NCCC(=O)O [Compound 152] | – | inhibition at 10 µM (10 μM test compound (marked *)): 58% |
| CC(C)C[C@H](NC(=O)OC(C)(C)C)C(=O)N[C@H](Cc1c[nH]c2ccccc12)C(=O)N[C@H](CCC(N)=O)C(=O)O [Compound 10] (Boc-Leu-[dW]-[dQ]-OH) | 32 | – |
| CC(C)C[C@H](NC(=O)NC(C)C)C(=O)N[C@H](Cc1c[nH]c2ccccc12)C(=O)NCC(=O)O [Compound 89] ({NHiPr-CO}-Leu-[dW]-Gly-OH) | – | inhibition at 10 µM (10 μM test compound (marked *)): 55% |
| CC(C)C[C@H](NC(=O)OC(C)(C)C)C(=O)N[C@H](Cc1c[nH]c2ccccc12)C(=O)N[C@H](Cc1c[nH]cn1)C(=O)O [Compound 4] (Boc-Leu-[dW]-[dH]-OH) | 80 | – |
| CC(C)C[C@H](NC(=O)OC(C)(C)C)C(=O)N[C@H](Cc1c[nH]c2ccccc12)C(=O)NC(CC(=O)O)c1ccccc1 (some centres unmarked) [Compound 14] | 64 | – |
| CC(C)C[C@H](NC(=O)OC(C)(C)C)C(=O)N[C@H](Cc1c[nH]c2ccccc12)C(=O)N[C@@H](CC(=O)O)C(N)=O [Compound 38] (Boc-Leu-[dW]-Asp-NH2) | 22 | – |
| CC(C)C[C@H](NC(=O)OC(C)C)C(=O)N[C@H](Cc1c[nH]c2ccccc12)C(=O)NCCC(=O)O [Compound 71] | 29 | – |
| CC(C)C[C@H](NC(=O)C(C)(C)C)C(=O)N[C@H](Cc1c[nH]c2ccccc12)C(=O)NCCC(=O)O [Compound 69] (Piv-Leu-[dW]-[βAla]-OH) | – | inhibition at 10 µM (10 μM test compound (marked *)): 71% |
| CC(C)C[C@H](NC(=O)N1CCCCCC1)C(=O)N[C@H](Cc1c[nH]c2ccccc12)C(=O)NCCC(=O)NS(=O)(=O)c1ccccc1 [Compound 157] | – | inhibition at 1.1 µM: 69% |
| CC(C)C[C@H](NC(=O)OC(C)(C)C)C(=O)N[C@H](Cc1c[nH]c2ccccc12)C(=O)N[C@@H](C(=O)O)C(C)C [Compound 43] (Boc-Leu-[dW]-[dV]-OH) | – | inhibition at 10 µM (10 μM test compound (marked *)): 36% |
| CC(C)C[C@H](NC(=O)OC(C)(C)C)C(=O)N[C@H](Cc1c[nH]c2ccccc12)C(=O)NCC(O)C(=O)O (some centres unmarked) [Compound 17] | 38 | – |
| CC(C)C[C@H](NC(=O)OC(C)(C)C)C(=O)N[C@H](Cc1c[nH]c2ccccc12)C(=O)NNCC(=O)O [Compound 148] | – | inhibition at 10 µM (10 μM test compound (marked *)): 82% |
| CC(C)C[C@H](NC(=O)OC(C)(C)C)C(=O)N[C@H](Cc1c[nH]c2ccccc12)C(=O)NCCCCCC(=O)O [Compound 6] (Boc-Leu-[dW]-[Ahx]-OH) | – | inhibition at 10 µM (10 μM test compound (marked *)): 37% |
| CC(C)C[C@H](NC(=O)OC(C)(C)C)C(=O)N[C@H](Cc1c[nH]c2ccccc12)C(=O)NN(CC(=O)O)Cc1ccccc1 [Compound 149] | – | inhibition at 10 µM (10 μM test compound (marked *)): 58% |
| CC(C)C[C@H](NC(=O)Cc1ccccc1)C(=O)N[C@H](Cc1c[nH]c2ccccc12)C(=O)NCCC(=O)O [Compound 70] (PhAc-Leu-[dW]-[βAla]-OH) | 32 | – |
| CC(C)C[C@H](NC(=O)CC(C)(C)C)C(=O)N[C@H](Cc1c[nH]c2ccccc12)C(=O)NCCC(=O)O [Compound 68] | – | inhibition at 10 µM (10 μM test compound (marked *)): 58% |
| CC(C)C[C@H](NC(=O)NC(C)(C)C)C(=O)N[C@H](Cc1c[nH]c2ccccc12)C(=O)NCCC(=O)O [Compound 85] ({NHtBu-CO}-Leu-[dW]-[βAla]-OH) | 77 | – |
| CC(C)C[C@H](NC(=O)OC(C)(C)C)C(=O)N[C@H](Cc1c[nH]c2ccccc12)C(=O)N[C@H](CCCCNC(=O)OCc1ccccc1)C(=O)O [Compound 8] (Boc-Leu-[dW]-[dK](Cbz)-OH) | 56 | – |
| CC(C)C[C@H](NC(=O)OC(C)(C)C)C(=O)N[C@H](Cc1c[nH]c2ccccc12)C(=O)N[C@H](CO)C(=O)O [Compound 7] (Boc-Leu-[dW]-[dS]-OH) | 35 | – |
| CC(C)C[C@H](NC(=O)OC(C)(C)C)C(=O)N[C@H](Cc1c[nH]c2ccccc12)C(=O)N[C@H](CC(C)C)C(=O)O [Compound 3] (Boc-Leu-[dW]-[dL]-OH) | 31 | – |
| CC(C)C[C@@H](C(=O)N[C@H](Cc1c[nH]c2ccccc12)C(=O)NCCC(=O)O)N(C)C(=O)OC(C)(C)C [Compound 30] (Boc-[NMeL]-[dW]-[βAla]-OH) | 44 | – |
| CC(C)C[C@H](NC(=O)OC(C)(C)C)C(=O)N[C@H](Cc1c[nH]c2ccccc12)C(=O)N[C@@H](C(=O)O)c1ccccc1 [Compound 40] (Boc-Leu-[dW]-[dPhg]-OH) | 36 | – |
| CC(C)C[C@H](NC(=O)N1CCCCCC1)C(=O)N[C@H](Cc1c[nH]c2ccccc12)C(=O)N[C@H](C)CC(=O)O [Compound 52] | 84 | – |
| CC(C)C[C@H](NC(=O)OC(C)(C)C)C(=O)N[C@H](Cc1c[nH]c2ccccc12)C(=O)N[C@H](CC(=O)O)C(N)=O [Compound 36] (Boc-Leu-[dW]-[dD]-NH2) | 65 | – |

Further lines, with some results ahead:

| inhibition at 1.1 µM (1.1 μM test compound (no mark)) [%] | Compound | other results |
| --- | --- | --- |
| 46 | CC(C)C[C@H](NC(=O)OC(C)(C)C)C(=O)N[C@H](Cc1c[nH]c2ccccc12)C(=O)N[C@H](Cc1ccc(OCc2ccccc2)cc1)C(=O)O [Compound 137] (Boc-Leu-[dW]-[dY](Bn)-OH) | – |
| 70 | CC(C)C[C@@H](C(=O)N[C@H](Cc1c[nH]c2ccccc12)C(=O)N[C@H](Cc1c[nH]c2ccccc12)C(=O)O)N1C(=O)CN(C2CCCC2)C1=O [Compound 155] | – |
| 66 | CC(C)C[C@H](NC(=O)N1CCCCCC1)C(=O)N[C@H](CC1C(=O)Nc2ccccc21)C(=O)N[C@H](C)CC(=O)O (some centres unmarked) [Compound 139] | – |
| 81 | CC(C)C[C@H](NC(=O)N(C)C(C)(C)C)C(=O)N[C@H](Cc1cn(C=O)c2ccccc12)C(=O)N[C@H](Cc1c[nH]c2ccccc12)C(=O)O [Compound 174] | – |
| 32 | CC(C)C[C@H](NC(=O)N1CCCCCC1)C(=O)N[C@H](Cc1c[nH]c2ccccc12)C(=O)NCCC(=O)N(C)C [Compound 136] | – |
| 85 | CC(C)C[C@H](NC(=O)N1CCCCCC1)C(=O)N[C@H](Cc1cn(C=O)c2ccccc12)C(=O)N[C@H](C)CC(=O)O [Compound 132] | – |
| 86 | CC(C)C[C@H](NC(=O)N1CCCCCC1)C(=O)N[C@H](Cc1c[nH]c2ccccc12)C(=O)N[C@H](C)CS(=O)(=O)O [Compound 160] | – |
| 72 | CC(C)C[C@H](NC(=O)OC(C)(C)C)C(=O)N[C@H](Cc1c[nH]c2ccccc12)C(=O)N[C@H](Cc1ccc(O)cc1)C(=O)O [Compound 138] (Boc-Leu-[dW]-[dY]-OH) | – |
| 87 | CC(C)C[C@H](NC(=O)C1CCCCCC1)C(=O)N[C@H](Cc1c[nH]c2ccccc12)C(=O)N[C@H](Cc1c[nH]c2ccccc12)C(=O)O [Compound 200] | – |

— patent US5470833A, “Endothelin antagonistic peptide derivatives” (Banyu Pharmaceutical Co., Ltd., priority 1990, dated 1995)
